The source of these data is patent US12404303B2, “Polypeptide and use thereof” (NANJING ANJI BIOLOGICAL TECHNOLOGY CO., LTD., priority 2019, dated 2025).

No end group written: not given here.

In test [1] the test system is SD rats with renal fibrosis. The test is described as follows: Renal fibrosis animal model (ureter ligation), TGF-β1 in serum. In kind it is in vivo. The following applies: 7.5 mg/kg subcutaneous twice a day, 14 days, vs model group; FIG. 4. The method, then: A renal fibrosis animal model was established. SD rats were anesthetized with 4% chloral hydrate, injected with 1 mL/100 g intraperitoneally, fixed to an operation board, and sterilized in an operation area for later use. […] Muscular layers and abdominal walls were sewed layer by layer, the suture was disinfected with alcohol. After SD rats woke up, the rats were put into a cage for feeding. In the blank group, ureter was not ligated, and other steps were the same. Then, the animals fell into a blank group, a model group, and polypeptide administration groups, and the administration was started on the second day after the operation, twice a day for 14 days. After administration for 14 days, blood was taken and supernatant was taken to detect the content of TGF-β1 in serum. [table]

For the next test, the system named is streptococcus pneumoniae. In words: Mouse pneumonia model, bacterial pneumonia. In kind it is in vivo, BALB/C mice. The following applies: average values±standard deviation. The source says: (§1) A mouse pneumonia model was successfully established by using a nasal drip method. BALB/C mice with a body weight of 18-24 g were selected, and then anesthetized with ether on day 0, day 1 and day 2, respectively, prepared streptococcus pneumoniae bacteria solution, adenovirus concentrated solution, mycoplasma pneumoniae, chlamydia pneumoniae, protozoa and pneumonia fungi were slowly dropped into the nasal cavity of the mice, so that the bacteria solutions entered the trachea and bronchi, and the bacteria solutions were prevented from flowing into the esophagus during the operation to avoid inactivation of the bacteria solutions, so that the mouse pneumonia model was established. After the model was successfully established, the polypeptide according to the present disclosure was administered, as shown in FIG. 7 and Table 9. […] The experimental results are represented on the basis of average values±standard deviation.

The subject of a further test is pneumonia fungi. In words: Mouse pneumonia model, fungal pneumonia. The format is in vivo, BALB/C mice. The following applies: average values±standard deviation.
Text: as §1

Test [2] concerns SD rats with bleomycin-induced pulmonary fibrosis. The test is described as follows: Bleomycin-induced pulmonary fibrosis animal model. In kind it is in vivo. The following applies: bleomycin 5 mg/kg intratracheal, polypeptides 7.5 mg/kg subcutaneous twice a day, positive drug 25 mg/kg intragastric once a day, 14 days. The method, then: SD rats were anesthetized by intraperitoneal injection of 1 mL/100 g 4% chloral hydrate. After anesthesia, the rats were fixed and their necks were disinfected by using cotton with 75% alcohol. The skin of the rat neck was longitudinally cut with scissors, and the fascia and muscle were longitudinally bluntly torn with tweezers to expose the trachea. A syringe was inserted into the trachea to inject 5 mg/kg bleomycin, while a blank group was injected with an equal amount of normal saline. Then a rat plate was quickly erected and rotated, the rats' breathing was observed, the neck wound was sterilized after rotation and was sewn, and an amoxicillin anti-inflammatory drug was sprinkled on the suture. After the operation, the rats were put back into a dry and clean cage for resting, waiting was performed for awakening. The rats were awakened after about 1-2 hours, and then fed normally. On the 7th day after modeling, modeling group animals randomly fell into a model group, a Nintedanib positive drug group, polypeptide I, II, III and IV dosage groups, and a normal control group, and the groups were administered separately for an administration cycle of 14 days. Living situations of rats were observed every day and their weights were weighed.

The subject of a further test is mycoplasma pneumoniae. In words: Mouse pneumonia model, mycoplasma pneumonia. The following applies: average values±standard deviation. The format is in vivo, BALB/C mice.
Text: as §1

In another test the test system is LX-2 cells. The test is described as follows: Proliferation of LX-2 cells induced by TGF-β1 (MTT, in vitro hepatic fibrosis model). In kind it is cell-based. The following applies: polypeptide 1 μmol/L, TGF-β1 10 ng/mL, 48 hours; for OD value: MTT, 570 nm. The method, then:
LX-2 cells were cultured in 1640 medium containing 10% FBS, and cultured in an incubator with 5% CO2 at 37° C. The medium was replaced every two days, and subcultured according to the cell density. The LX-2 cells in a logarithmic growth phase were digested with 0.25% pancreatin to make cell suspension. The density of the cells was adjusted to 4×10^5 cells/mL, and the cells were inoculated into 96-well plates with 100 μL per well and cultured overnight. On the second day, TGF-β1 was added to induce the proliferation and activation of the LX-2 cells, and the polypeptide drugs were administrated at 1 μmol/L. TGF-β1 (10 ng/mL) was added to each group except the blank group. The cells were cultured in the incubator for 48 hours, and then 10 μL of MTT was added to each well. The MTT was removed after 4 hours, and 150 μL of DMSO was added for reaction for 5 min. An OD value was measured by a microplate reader at 570 nm.

Test [3] relates to cardiac fibroblasts of rats. In words: Proliferation of cardiac fibroblasts of rats (MTT, in vitro myocardial fibrosis model). In kind it is cell-based. The following applies: 1 μmol/L; for Optical density values, 12 hours / Optical density values, 24 hours / Optical density values, 48 hours: MTT, 570 nm; for inhibition of the proliferation of cardiac fibroblasts of rats: at 24 hours and 48 hours. The method, then:
The inhibitory effect of a polypeptide on cardiac fibroblasts of rats was detected by MTT assay. Cells were cultured in a DMEM medium containing 10% of FBS, the cytoplasm was made into 1×10^5/mL cell suspension, and 100 μL per well was inoculated into a 96-well plate. After the cells adhered to the wall, the medium was replaced with a serum-free DMEM medium, and the serum-free medium was discarded after 24 hours. The cells were cultured with different polypeptides of 1 μmol/L, and 5 multiple wells were set for each concentration. After 12, 24 and 48 hours separately, 10 μL of MTT was added to each well. After 4 hours, MTT was sucked out, and 150 μL of DMSO was added to each well. After reaction for 5 min, an OD value was measured at 570 nm by a microplate reader.

For a further test, the system named is adenovirus. The test is described as follows: Mouse pneumonia model, viral pneumonia. The format is in vivo, BALB/C mice. The following applies: average values±standard deviation.
Text: as §1

A further test has as its system skin fibrosis model mice. The test is described as follows: Skin fibrosis model induced by bleomycin, HYP in skin tissue. In kind it is in vivo, C57/BL black mice. The following applies: skin tissue of the mouse back; 10 mg/kg subcutaneous twice a day, 28 days, vs model group; FIG. 6. The method, then:
Bleomycin (10 μg/mL) was injected subcutaneously every day for 28 days to form skin fibrosis. During the modeling period, the administration groups were given polypeptide drugs every day for treatment, with 10 mice in each group. After modeling, the mice were killed on the next day, and the skin tissue of the mouse back was taken to detect the content of HYP in the skin tissue. [table]

The test system of a further test is chlamydia pneumoniae. In words: Mouse pneumonia model, chlamydia pneumonia. In kind it is in vivo, BALB/C mice. The following applies: average values±standard deviation.
Text: as §1

The subject of a further test is pulmonary infections. In words: Mouse pneumonia model, pneumonia caused by pulmonary infections. In kind it is in vivo, BALB/C mice. The following applies: average values±standard deviation.
Text: as §1

Another test relates to myelofibrosis model mice. The test is described as follows: Myelofibrosis model induced by rh EPO. In kind it is in vivo, Kunming mice. More on the design: WBC / Hb / MCV / RDW: unit not given here. The following applies: 10 mg/kg subcutaneous twice a day, 28 days; for Hb / MCV / RDW / WBC: peripheral blood; for content of TGF-β1 in serum: mouse serum, vs model group, FIG. 5. Here is the method:
There were 10 mice in each group. The normal control group was injected with normal saline (0.3 mL for each mouse), and the remaining groups were injected with rh EPO (0.1 unit/gram, body weight, 0.3 mL for each mouse) intraperitoneally every day. After induction for two days, drug therapy was started, subcutaneous injection was given twice a day, and after continuous administration for 28 days, the mouse heart was punctured for blood extraction, some blood was used for peripheral blood analysis, some blood was centrifuged, and the supernatant was taken to measure the content of TGF-β1 in the serum of mice. [table]

The subject of another test is protozoa. In words: Mouse pneumonia model, protozoal pneumonia. In kind it is in vivo, BALB/C mice. The following applies: average values±standard deviation.
Text: as §1

As for “RGADRAGGGGPRCWCGE (cysteine pairing not given here) [Polypeptide II]”, in [1], the “content of TGF-β1 in serum” value is listed as “highly significantly different from the model group (***P<0.001)”. Besides, the “Inhibitory effect on pulmonary infections, Bacterial pneumonia” value (from here on “Inhibitory effect … Bacterial pneumonia”) in the test on streptococcus pneumoniae was found to be 49.25 ± 9.48. Further, in the test on pneumonia fungi, the “Inhibitory effect on pulmonary infections, Fungal pneumonia” value (from here on “Inhibitory effect … Fungal pneumonia”) came out at 65.32 ± 3.07. Further, in test [2], the “Survival rate (%)” value amounted to 85.7%. The “Inhibitory effect on pulmonary infections, Mycoplasma pneumonia” value (shortened to “Inhibitory effect … Mycoplasma pneumonia”) in the test on mycoplasma pneumoniae is listed as 54.69 ± 5.72. In the test on LX-2 cells, the “inhibition of proliferation and activation of LX-2 cells, difference from model group” value (“inhibition … difference from model group” below) is “highly significantly different from the model group (**P<0.01)”; the OD value is 0.59 ± 0.02. In test [3], the “Optical density values, 12 hours” value was 0.325 ± 0.004; the “Optical density values, 24 hours” value amounted to 0.377 ± 0.015; the “Optical density values, 48 hours” value is listed as 0.518 ± 0.015; the “inhibition of the proliferation of cardiac fibroblasts of rats” value (from here on “inhibition of the proliferation … of rats”) was “could inhibit the proliferation”. Moreover, the “Inhibitory effect on pulmonary infections, Viral pneumonia” value (“Inhibitory effect … Viral pneumonia” below) in the test with adenovirus stood at 70.33 ± 9.27. Further, the “expression of HYP in the skin tissue” value in the test with skin fibrosis model mice is listed as “highly significantly different from the model group (***P<0.001)”. The “Inhibitory effect on pulmonary infections, Chlamydia pneumonia” value (“Inhibitory effect … Chlamydia pneumonia” for short) in the test with chlamydia pneumoniae is 57.81 ± 5.21. Besides, in the test on pulmonary infections, the “Inhibitory effect on pulmonary infections, Pneumonia caused by pulmonary infections” value (from here on “Inhibitory effect … by pulmonary infections”) is 66.15 ± 5.87. In the test with myelofibrosis model mice, this sequence yielded a Hb of 151 ± 19, an MCV of 51 ± 9, an RDW of 26 ± 3 and a WBC of 5.61 ± 1.43. In the test with protozoa, the “Inhibitory effect on pulmonary infections, Protozoal pneumonia” value (“Inhibitory effect … Protozoal pneumonia” below) is recorded as 63.60 ± 6.16.
For RGADRAGGGGPRCWRGE [Polypeptide I], the “content of TGF-β1 in serum” value in test [1] is listed as “highly significantly different from the model group (**P<0.01)”. Also, the “Inhibitory effect … Bacterial pneumonia” value with streptococcus pneumoniae is reported as 43.83 ± 7.59. For the same sequence, in the test with pneumonia fungi, the “Inhibitory effect … Fungal pneumonia” value is 45.65 ± 9.68. Besides, the “Survival rate (%)” value in [2] was found to be 78.6%. The “Inhibitory effect … Mycoplasma pneumonia” value in the test with mycoplasma pneumoniae was found to be 41.48 ± 5.55. For the same sequence, in the test on LX-2 cells, the “inhibition … difference from model group” value is “significantly different from the model group (*P<0.05)”; the OD value was found to be 0.66 ± 0.02. In addition, in [3], the “Optical density values, 12 hours” value was determined as 0.326 ± 0.006; the “Optical density values, 24 hours” value was found to be 0.392 ± 0.008; the “Optical density values, 48 hours” value was found to be 0.580 ± 0.012; the “inhibition of the proliferation … of rats” value was “could inhibit the proliferation”. In addition, the “Inhibitory effect … Viral pneumonia” value in the test with adenovirus is given as 58.00 ± 6.84. Moreover, in the test on skin fibrosis model mice, the “expression of HYP in the skin tissue” value is on record as “highly significantly different from the model group (***P<0.001)”. Besides, the “Inhibitory effect … Chlamydia pneumonia” value in the test on chlamydia pneumoniae is on record as 45.18 ± 7.46. In the test on pulmonary infections, the “Inhibitory effect … by pulmonary infections” value stood at 52.47 ± 7.88. In the test with myelofibrosis model mice, the “content of TGF-β1 in serum” value is given as “highly significantly different from the model group (**P<0.01)”, the Hb was determined as 143 ± 23, the MCV was 52 ± 4 and the RDW came to 31 ± 2. The WBC with myelofibrosis model mice came out at 5.97 ± 1.76. Further, the “Inhibitory effect … Protozoal pneumonia” value with protozoa worked out at 48.16 ± 5.46.
As to “RGADRAGGGGPRCYCGE (cysteine pairing not given here) [Polypeptide IV]”, the “content of TGF-β1 in serum” value in test [1] is recorded as “highly significantly different from the model group (**P<0.01)”. Also, the “Inhibitory effect … Bacterial pneumonia” value in the test on streptococcus pneumoniae amounted to 45.05 ± 3.25. Besides, the “Inhibitory effect … Fungal pneumonia” value in the test with pneumonia fungi is given as 48.61 ± 3.22. Besides, the “Survival rate (%)” value in test [2] was determined as 92.9%. Besides, the “Inhibitory effect … Mycoplasma pneumonia” value with mycoplasma pneumoniae is 43.27 ± 5.63. Also, in the test with LX-2 cells, the “inhibition … difference from model group” value was “significantly different from the model group (*P<0.05)”; the OD value worked out at 0.64 ± 0.03. In test [3], the “Optical density values, 12 hours” value is 0.309 ± 0.010; the “Optical density values, 24 hours” value worked out at 0.385 ± 0.008; the “Optical density values, 48 hours” value was found to be 0.598 ± 0.013; the “inhibition of the proliferation … of rats” value is given as “could inhibit the proliferation”. The “Inhibitory effect … Viral pneumonia” value with adenovirus came to 58.07 ± 2.07. The “expression of HYP in the skin tissue” value with skin fibrosis model mice is on record as “highly significantly different from the model group (*P<0.05)”. Besides, in the test with chlamydia pneumoniae, the “Inhibitory effect … Chlamydia pneumonia” value was determined as 38.85 ± 3.11. The “Inhibitory effect … by pulmonary infections” value with pulmonary infections is 55.57 ± 4.25. In the test with myelofibrosis model mice, the “content of TGF-β1 in serum” value is given as “highly significantly different from the model group (**P<0.01)”, the Hb stood at 155 ± 16, the MCV was determined as 54 ± 5 and the RDW was found to be 24 ± 1. In addition, in the test with myelofibrosis model mice, the WBC worked out at 5.83 ± 1.07. The “Inhibitory effect … Protozoal pneumonia” value with protozoa is 49.04 ± 3.17.
